Values after ≈ are worked out from the molar mass of the structure shown.
Tests used:
Phytophthora infestans [1] = format: in vivo, Phytophthora infestans (on tomato plants); conditions: tomato, spray 0.06% active ingredient, infested after 24 hours, evaluated after 5 days at 20° C.
[2] = Volatility: evaporation half-life T50 in an evaporating tube; format: physicochemical; conditions: 50° C., stream of air of 20 m/h, relative to T50 of Metalaxyl
Method: (§1) Determination of physico-chemical data
In an evaporating tube, the evaporation half-life values T50 of representative fungicides of this invention are determined at 50° C. and in a stream of air of 20 m/h. The values are shown below, relative to the corresponding half-life T50 of Metalaxyl.

Pythium debaryanum [3] = test: Action on Pythium debaryanum on sugar beets, (b) after seed dressing application; format: in vivo; conditions: sugar beet, seed dressing 0.06%, 2-3 weeks at c. 20° C.
Method: (§2) Action on Pythium debaryanum on sugar beets
(b) Action after seed dressing application
The fungus is cultivated on carrot chip nutrient solution and added to a mixture of earth and sand. Flower pots are filled with the infected soil and sugar beet seeds which have been treated with the test preparations formulated as seed dressing powders are sown therein (0.06% of one of the compounds of Tables 1 and 2). The pots are then stood in a greenhouse for 2-3 weeks at c. 20° C. The soil is kept uniformly moist by gently spraying it with water. The emergence of the sugar beet plants is ascertained in evaluating the test.

Pythium debaryanum [4] = test: Action on Pythium debaryanum on sugar beets, (a) after soil application; format: in vivo; conditions: sugar beet, 20 ppm of active ingredient based on volume of soil, 2-3 weeks at 20°-24° C.
Source text: as §2
(a) Action after soil application
The fungus is cultivated on carrot chips nutrient solution and added to a mixture of earth and sand. Flower pots are filled with the infected soil, in which sugar beet seeds are then sown. Immediately after sowing, the test preparations formulated as wettable powders are poured in the form of aqueous suspensions over the soil (20 ppm of active ingredient, based on the volume of the soil). The pots are then stood for 2-3 weeks in a greenhouse at 20°-24° C. The soil is kept uniformly moist by gently spraying it with water. The emergence of the sugar beet plants as well as the number of healthy and sick plants are ascertained in evaluating the test.

Water solubility = format: physicochemical; conditions: 25° C.
Source text: as §1
(a) Reduced water solubility

Podosphaera leucotricha = test: Residual-protective action against Podosphaera leucotricha on apples; format: in vivo; conditions: apple seedlings, spray 0.06% of active ingredient, evaluated 12 days after infection
Method: Residual-protective action against Podosphaera leucotricha on apples
Apple seedlings in the 5-leaf stage are sprayed with a spray mixture (0.06% of active ingredient) prepared from a wettable powder formulation of the active ingredient. After 24 hours the treated plants are infected with a conidia suspension of the fungus and placed in a climatic chamber at 70% relative humidity and 20° C. Evaluation of fungus infestation is made 12 days after infection.

Phytophthora infestans [5] = format: in vivo, Phytophthora infestans (on tomato plants); conditions: tomato, sprayed 0.06% active ingredient 22 hours after infestation, evaluated 5 days after infestation
Venturia inaequalis = test: Residual-protective action against Venturia inaequalis on apple shoots; format: in vivo; conditions: spray 0.06%, evaluated 15 days after infection
Method: Residual-protective action against Venturia inaequalis on apple shoots
Apple cuttings with 10-20 cm long fresh shoots are sprayed with a spray mixture prepared from a wettable powder formulation of the active ingredient (0.06%). After 24 hours the treated plants are infected with a conidia suspension of the fungus. The plants are then incubated for 5 days at 90-100% relative humidity and stood in a greenhouse for a further 10 days at 20°-24° C. Scab infestation is evaluated 15 days after infection.

Erysiphe graminis = test: Action against Erysiphe graminis on barley, residual protective action; format: in vivo, Erysiphe graminis (on barley plants); conditions: 0.02% active ingredient sprayed, infected after 3-4 hours, evaluated after 10 days
Method: Action against Erysiphe graminis on barley
Residual protective action
Barley plants about 8 cm in height are sprayed with a spray mixture (0.02% of active ingredient) prepared from the active ingredient formulated as a wettable powder. The treated plants are dusted with conidia of the fungus after 3-4 hours. The infected barley plants are then stood in a greenhouse at about 22° C. The extent of the fungus infection is evaluated after 10 days.

SMILES | fungus attack compared with untreated control plants (100% attack), residual-protective (Phytophthora infestans [1]) | Multiple of Metalaxyl T50 (evaporation half-life) [2] [×] | emergent plants (fully effective against Pythium pathogens), seed dressing application (Pythium debaryanum [3]) | emergent plants (fully effective against Pythium pathogens), soil application (Pythium debaryanum [4]) | solubility (Water solubility) [µg/mL] | fungus attack compared with untreated and infected control seedlings (100% attack) (Podosphaera leucotricha) | fungus attack compared with untreated and infected control plants (100% attack), residual curative (Phytophthora infestans [5]) | scab infestation (reduced to) (Venturia inaequalis) | fungus attack compared with control plants (100% attack) (Erysiphe graminis)
COCC(=O)N(c1c(C)cccc1N)C(C)C(=O)OC (centres unmarked) [Compound 2, N-(1'-methoxycarbonylethyl)-N-methoxyacetyl-2-amino-6-methyl-aniline] | less than 10% | 5.4 | over 90% | over 90% | 300 (≈ 1.07 mM) | less than 10% | less than 10% |  | 
COCC(=O)N(c1c(N)ccc(C)c1C)C(C)C(=O)OC (centres unmarked) [Compound 8, N-(1'methoxycarbonylethyyl)-N-methoxyacetyl-2,3-dimethyl-6-aminoaniline] | less than 10% |  | over 90% | over 90% |  | less than 10% | less than 10% | 10-15% | 
COCC(=O)N(c1c(C)ccc(N)c1C)C(C)C(=O)OC (centres unmarked) [Compound 10, N-(1'methoxycarbonylethyl)-N-methoxyacetyl-2,6-dimethyl-3-aminoaniline] | less than 10% |  | over 90% | over 90% |  | less than 10% | less than 10% | 10-15% | less than 10%
COCC(=O)N(c1c(C)ccc([N+](=O)[O-])c1C)C(C)C(=O)OC (centres unmarked) [Compound 28, N-(1'-methoxycarbonylethyl)-N-methoxyacetyl-2,6-dimethyl-3-nitroaniline] | less than 10% | 35.8 | over 90% | over 90% | 2500 (≈ 7.71 mM) | less than 10% | less than 10% | 10-15% | 
CCOCC(=O)N(c1c(C)ccc([N+](=O)[O-])c1C)C(C)C(=O)OC (centres unmarked) [Compound 31, N-(1'-methoxycarbonylethyl)-N-ethoxyacetyl-2,6-dimethyl-3-nitroaniline] | less than 10% | 41.8 | over 90% | over 90% | 2500 (≈ 7.39 mM) | less than 10% | less than 10% | 10-15% | 
COCC(=O)N(c1c(C)ccc([N+](=O)[O-])c1C)C(C)C(=O)OC(C)C (centres unmarked) [Compound 33, N-(1'-isopropyloxycarbonylethyl)-N-methoxyacetyl-2,6-dimethyl-3-nitroaniline] | less than 10% | 45.6 | over 90% | over 90% | 500 (≈ 1.42 mM) | less than 10% | less than 10% |  | 
COCC(=O)N(c1c(C)cccc1[N+](=O)[O-])C(C)C(=O)OC (centres unmarked) [Compound 48, N-(1'-methoxycarbonylethyl)-N-methoxyacetyl-2-methyl-6-nitroaniline] | less than 10% | 12.3 | over 90% | over 90% | 4000 (≈ 12.9 mM) | less than 10% | less than 10% |  | 
CCOCC(=O)N(c1c(Cl)ccc([N+](=O)[O-])c1C)C(C)C(=O)OC (centres unmarked) [Compound 107] |  |  | over 90% | over 90% |  |  | less than 10% |  | less than 10%
COCC(=O)N(c1c(N)ccc2ccccc12)C(C)C(=O)OC (centres unmarked) [Compound 701, 1N-(1'-methoxycarbonylethyl)-1N-methoxyacetyl-1,2-diaminonaphthalene] | less than 10% |  | over 90% | over 90% |  |  | less than 10% | 10-15% | 

— patent publication US4377587A, “Arylamine derivatives and use thereof as microbicides” (Ciba-Geigy Corporation, priority 1980, dated 1983)
